# According to patent US20040014814A1, “Compositions and methods for delaying preventing rejuvenating or reversing senescence in cells” (priority 2000, published 2004):
# Assays:
# non-enzymic glycation = system: non-enzymic glycation; set-up: key: 0 = zero effect; 10 = maximum effect; conditions: summary grade; footnote (2) literature; cited from earlier work
# Anti-oxidant activity = assay type: biochemical; conditions: parent compound = carnosine
# [1] = Fate of compound after cellular uptake; assay type: cell-based; conditions: compared with carnosine
# Experimental: Experiments were conducted to determine the fate of acetyl-carnosine and carnosine after cellular uptake. […] A slower metabolism and incorporation into other proteins may be one reason for acetyl-carnosine having higher effective intracellular concentrations compared with carnosine despite its lower overall uptake.
# human blood peptidases = test: Stability in human blood serum / attack by human blood peptidases; assay type: in vitro ADME
# MRC-5 cells = test: Effect of carnosine derivatives on cell growth / toxicity in MRC-5 cell cultures; assay type: cell-based, human; set-up: key to Effect on cell growth (score): (0) Toxic to cell growth; (10) Confluent cell growth; conditions: MRC-5 cells, scale 0 toxic to 10 confluent
# Experimental: MRC -5 cells (fetal lung fibroblasts) were grown in Dulbecco's modification of Eagles' minimum essential medium (DMEM Gibco BRL Cat. No. 12800-017) containing 0.45% glucose, or MEM (Gibco BRL Cat. No. 612800-017) containing 0.1% glucose. Both media contained 10% fetal calf scrum (TRACE Biosciences Cat. No. 15-010-0500V) and Penicillin/Streptomycin 5000 IU, 5000 μg/ml (TRACE Biosciences Cat. No. 21-140-0100V). Cells were grown in […] flasks or in dishes (35 mm or 60 mm, Nunc) at 37° C. with 5% CO2. Cells were harvested with trypsin (TRACE Biosciences Cat. No. 21-163-0100V) and counted with a model ZF6 Coulter Counter. Cells were split in ratios of 1:2 or 1:4. Population doublings (PDs) were calculated from the ratio of the initial number of cells plated to the yield of cells after a period of time. This provides an accurate measure of cell growth, with the split ratios 1:2 and 1:4 corresponding to one and two passages respectively, which are broadly equivalent to population doublings. The media was changed every 5 days or when cells became confluent.
# MRC-5 cells were used to observe the toxicity of a series of derivatives of carnosine on cell growth. Cell cultures were grown in DMEM media with 10% fetal calf serum and supplemented with the following carnosine analogues: carnosine ethyl ester, carnosine iso-propyl ester, carnosine n-butyl ester, carnosine n-hexyl ester, N-propyl carnosine, N-hexanoyl carnosine, N-trimethyl acetyl carnosine, N-acetyl carnosine methyl ester, N-acetyl carnosine ethyl ester and N-acetyl carnosine, […] Cells were also grown in DMEM supplemented with carnosine at 20 mM. […] Even at lower concentrations cell morphology was that of cells that have reached senescence i.e. broad flat cells with long process reaching out to other cells. Cell numbers were less than in the control flasks. […] As shown in FIG. 1 Acetyl-carnosine achieved a lifespan 5 PDs greater than the control and 6.7 PDs greater than carnosine over a 43 day period. […] In the early phase of the experiment growth rates were markedly greater than with the other compounds (FIG. 1).
# p16^INK4/CDKN2 = test: Immunohistochemical staining of p16 in MRC-5 cell nuclei; assay type: cell-based, human; conditions: senescent cells, old media replaced with supplemented media, after a few days
# Experimental: Senescent cells treated with acetyl-carnosine acquire a younger phenotype and no longer express p16 (C). Cells were stained from passage 30 until senescence was reached (approximately passage 65) in order to determine the effectiveness of p16 as a reliable biomarker.
# Tissue culture cells were fixed by slowly infusing 4% paraformaldehyde in 0.1M sodium phosphate buffer pH 7.4 into the culture medium. This solution was then replaced with fixative alone and stored at −20° C. for 30 minutes. Cultures were then defrosted for 5 minutes at 37° C. and then washed with 3 changes of the 0.1M sodium phosphate buffer. […]
# Three primary antibodies were used in this study: (i) murine monoclonal antibodies against cyclin-dependent kinase inhibitor p27^kipl (clone SX53G8, IgG, Loto38, DAKO, diluted 1:200); (ii) murine monoclonal antibodies against cyclin-dependent kinase inhibitor p21^WAP/CIPI (clone SX118, IgG, Loto88, DAKO, diluted 1:200); and (iii) murine monoclonal antibodies against cyclin-dependent kinase inhibitor p16^INK4/CDKN2 (clone DCS-50, IgG, Lot 077H4821, Sigma, diluted 1:200). […] An estimate of positively stained cells to specific antigens was determined. […]
structure (smiles),measurement,setting,value
CC(=O)NCCC(=O)N[C@@H](Cc1cnc[nH]1)C(=O)O [N-acetyl carnosine],anti-glycation (2),non-enzymic glycation,0
same,Antioxidant effectiveness relative to the parent compound,Anti-oxidant activity,60%
same,Residence time in the cell before degradation,[1],considerably longer residence time
same,Resistance to attack by human blood peptidases,human blood peptidases,almost completely resistant
same,Stability in human blood serum,human blood peptidases; human blood serum,quite stable
same,Effect on cell growth (score),MRC-5 cells; 0.5 mM,7
same,Effect on cell growth (score),MRC-5 cells; 1 mM,8
same,Effect on cell growth (score),MRC-5 cells; 2 mM,9
same,Effect on cell growth (score),MRC-5 cells; 5 mM,10
same,Effect on cell growth (score),MRC-5 cells; 10 mM,9
same,Effect on cell growth (score),MRC-5 cells; 20 mM,8
same,Expression of p16 in the nucleus,p16^INK4/CDKN2,no expression of p16 in the nucleus
